Patent publication US12448373B2, “Azetidinyl-acetamides as CXCR7 inhibitors” (CHEMOCENTRYX, INC., priority 2021, dated 2025)

target: T1, CXCR7 (Homo sapiens, UniProt P25106); experiment: CXCR7 β-arrestin recruitment assay in CHO-CXCR7 cells (ProLink/EA β-galactosidase complementation), induced by human SDF-1a; assay type: cell-based; settings: assay buffer, SDF-1a at EC50 concentration
T1 construct: expressed in transfected cells; host or cells: CHO cells (CHO-CXCR7), transgenes maintained with Hygromycin B and G418
Outline: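 CHO cells co-expressing ProLink-tagged CXCR7 and β-arrestin-EA were pre-plated overnight, then given compound and human SDF-1α at its same-day EC50. After 1.5 h at 37 °C, complemented β-galactosidase was read from 0.4 mM 3-carboxyumbelliferyl β-D-galactopyranoside (30 min, 37 °C; ex 360/em 465 nm). IC50 by 3-parameter fit.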

T1 sequence (P25106 whole entry): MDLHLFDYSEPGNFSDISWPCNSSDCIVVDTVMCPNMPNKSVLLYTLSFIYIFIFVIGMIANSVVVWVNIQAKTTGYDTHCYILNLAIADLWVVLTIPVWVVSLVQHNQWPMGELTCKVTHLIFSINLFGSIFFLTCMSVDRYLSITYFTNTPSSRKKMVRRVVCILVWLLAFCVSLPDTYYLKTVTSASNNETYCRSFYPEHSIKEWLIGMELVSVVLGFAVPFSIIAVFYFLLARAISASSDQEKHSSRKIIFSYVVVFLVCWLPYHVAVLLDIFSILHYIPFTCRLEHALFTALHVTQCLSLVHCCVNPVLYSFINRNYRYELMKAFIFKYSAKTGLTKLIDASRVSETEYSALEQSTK

Compared with Cc1cc(C)nc(C(C)(C)NC(=O)CC2(NC(=O)c3cc(-c4ccc(F)cc4F)on3)CN([C@H]3CC[C@](C)(O)CC3)C2)c1 [Example 1.106], Cc1cc(C(C)(C)NC(=O)CC2(NC(=O)c3cc(-c4ccc(F)cc4F)on3)CN(C3CCC(C)(O)CC3)C2)cc(C)n1 (stereo not shown) [Example 1.111] is higher in IC50: less than 5 nM for the first, 5 to 100 nM for the second.

First: CC1(CN2CC(CC(=O)NC(C)(C)c3ccccn3)(NC(=O)c3cc(-c4ccc(F)cc4F)on3)C2)CCC1 [Example 1.002]
Second: COC1(C)CCC(N2CC(CC(=O)NC(C)(C)c3ccccn3)(NC(=O)c3cc(-c4ccc(F)cc4F)on3)C2)CC1 (stereo not shown) [Example 1.285]
The IC50 of the first is lower: less than 5 nM for the first, 5 to 100 nM for the second. The first is the more potent here.

First: CC(C)(NC(=O)CC1(NC(=O)c2cc(-c3ccc(F)cc3F)on2)CN([C@H]2CC[C@](C)(O)CC2)C1)c1ccccc1Cl [Example 1.219]
Second: Cn1ccc2c(C(C)(C)NC(=O)CC3(NC(=O)c4cc(-c5ccc(F)cc5F)on4)CN([C@H]4CC[C@@](C)(O)CC4)C3)cccc21 [Example 1.125]
The IC50 of the first is lower: less than 5 nM for the first, 5 to 100 nM for the second. The first is the more potent here.

Compared with C[C@]1(O)CC[C@H](N2CC(CC(=O)NCc3ccccn3)(NC(=O)c3cc(-c4ccc(F)cc4F)on3)C2)CC1 [Example 1.099], O=C(CC1(NC(=O)c2cc(-c3ccc(F)cc3F)on2)CN(C2CCCC2)C1)NC1(c2ncccn2)CC1 [Example 1.331] is lower in IC50: 1000 to 20000 nM for the first, 5 to 100 nM for the second.

CC(C)CN1CC(CC(=O)NC(C)(C)c2cc(F)cc(F)c2)(NC(=O)c2cc(-c3ccc(F)cc3F)on2)C1 [Example 1.036] and Cc1cc(C(C)(C)NC(=O)CC2(NC(=O)c3cc(-c4ccc(F)cc4F)on3)CN(CC3CC3)C2)ccn1 [Example 1.114] fall in the same range of IC50: 5 to 100 nM for the first, 5 to 100 nM for the second.

First: CC(C)(NC(=O)CC1(NC(=O)c2nnc(-c3ccc(F)cc3F)s2)CN([C@H]2CC[C@@](C)(O)CC2)C1)c1cccc(Cl)c1 [Example 1.064]
Second: CC1(C)CC(N2CC(CC(=O)NC(C)(C)c3cccc(Cl)c3)(NC(=O)c3cc(-c4ccc(F)cc4F)on3)C2)CCO1 (stereo not shown) [Example 1.357]
The IC50 of the first is lower: less than 5 nM for the first, 5 to 100 nM for the second.

CC(C)(NC(=O)CC1(NC(=O)c2cc(-c3ccc(F)cc3F)on2)CN(c2ncccn2)C1)c1ccccn1 [Example 1.315] was tested, and the IC50 was 1000 to 20000 nM.
